Laboratory results published in article PMC5218480 (PLoS ONE, 2017).

System: MV-4-11 cells
Test: Gene expression microarray analysis (Affymetrix PrimeView) and GSEA
Format: cell-based, human
Set-up: RFU PODN (11730768_x_at) / Fold change /veh PODN (11730768_x_at) / RFU LINC00158 (11744669_a_at) / Fold change /veh LINC00158 (11744669_a_at) / RFU DUSP10 (11751237_a_at) / Fold change /veh DUSP10 (11751237_a_at) / RFU ID3 (11757404_x_at) / Fold change /veh ID3 (11757404_x_at) / RFU PLEKHG5 (11737974_s_at) / Fold change /veh PLEKHG5 (11737974_s_at) / RFU LRRC4B (11730491_at) / Fold change /veh LRRC4B (11730491_at) / RFU GIMAP4 (11747438_a_at) / Fold change /veh GIMAP4 (11747438_a_at) / RFU KRT8 (11758183_x_at) / Fold change /veh KRT8 (11758183_x_at) / RFU CNN1 (11734310_a_at) / Fold change /veh CNN1 (11734310_a_at) / RFU VPS37D (11726825_at) / Fold change /veh VPS37D (11726825_at) / RFU C10orf10 (11716522_x_at) / Fold change /veh C10orf10 (11716522_x_at) / RFU KIR2DL2 /// KIR2DL4 /// KIR2DL5A /// KIR2DL5B /// KIR2DS1 /// KIR2DS2 /// KIR2DS3 /// KIR2DS4 /// KIR3DL3 /// KIR3DL3 /// KIR3DS1 (11738374_at) / Fold change /veh KIR2DL2 /// KIR2DL4 /// KIR2DL5A /// KIR2DL5B /// KIR2DS1 /// KIR2DS2 /// KIR2DS3 /// KIR2DS4 /// KIR3DL3 /// KIR3DL3 /// KIR3DS1 (11738374_at) / RFU C1QL1 (11718748_at) / Fold change /veh C1QL1 (11718748_at) / RFU TMPRSS4 (11747572_a_at) / Fold change /veh TMPRSS4 (11747572_a_at) / RFU HAMP (11756126_x_at) / Fold change /veh HAMP (11756126_x_at) / RFU RNFT2 (11725882_a_at) / Fold change /veh RNFT2 (11725882_a_at) / RFU NR4A2 (11747474_a_at) / Fold change /veh NR4A2 (11747474_a_at) / RFU ABCC12 (11746883_a_at) / Fold change /veh ABCC12 (11746883_a_at) / RFU TMEM136 (11760407_x_at) / Fold change /veh TMEM136 (11760407_x_at) / RFU CLDN22 /// WWC2 (11732394_at) / Fold change /veh CLDN22 /// WWC2 (11732394_at) / RFU HLA-DPB1 (11760878_x_at) / Fold change /veh HLA-DPB1 (11760878_x_at) / RFU SPINT1 (11716480_a_at) / Fold change /veh SPINT1 (11716480_a_at) / RFU GAP43 (11754022_s_at) / Fold change /veh GAP43 (11754022_s_at) / RFU A4GNT (11735810_at) / Fold change /veh A4GNT (11735810_at) / RFU PRB3 (11715151_x_at) / Fold change /veh PRB3 (11715151_x_at) / RFU TUBB4B (11761932_at) / Fold change /veh TUBB4B (11761932_at) / RFU CAPN14 (11732068_a_at) / Fold change /veh CAPN14 (11732068_a_at) / RFU TMCC2 (11721928_a_at) / Fold change /veh TMCC2 (11721928_a_at) / RFU IRGQ (11745062_a_at) / Fold change /veh IRGQ (11745062_a_at) / RFU FAM174B (11720279_a_at) / Fold change /veh FAM174B (11720279_a_at) / RFU TMPRSS4 (11748680_a_at) / Fold change /veh TMPRSS4 (11748680_a_at) / RFU FAM212B (11763350_a_at) / Fold change /veh FAM212B (11763350_a_at) / RFU PLEKHG5 (11743358_a_at) / Fold change /veh PLEKHG5 (11743358_a_at) / RFU ZSCAN30 (11745921_a_at) / Fold change /veh ZSCAN30 (11745921_a_at) / RFU CMKLR1 (11741424_a_at) / Fold change /veh CMKLR1 (11741424_a_at) / RFU LOC101060620 /// MAPK8IP1 (11723275_at) / Fold change /veh LOC101060620 /// MAPK8IP1 (11723275_at) / RFU SPTSSB (11747773_x_at) / Fold change /veh SPTSSB (11747773_x_at) / RFU PRSS12 (11739890_at) / Fold change /veh PRSS12 (11739890_at) / RFU BIN1 (11741810_x_at) / Fold change /veh BIN1 (11741810_x_at) / RFU WNT11 (11732464_a_at) / Fold change /veh WNT11 (11732464_a_at) / RFU C10orf10 (11716521_a_at) / Fold change /veh C10orf10 (11716521_a_at) / RFU C5orf56 (11738089_at) / Fold change /veh C5orf56 (11738089_at) / RFU CYB561 (11721691_x_at) / Fold change /veh CYB561 (11721691_x_at) / RFU ANKRD19P (11752326_a_at) / Fold change /veh ANKRD19P (11752326_a_at) / RFU OR2T12 /// OR2T33 /// OR2T8 (11738714_s_at) / Fold change /veh OR2T12 /// OR2T33 /// OR2T8 (11738714_s_at) / RFU VCAN (11748164_a_at) / Fold change /veh VCAN (11748164_a_at) / RFU JSRP1 (11732532_at) / Fold change /veh JSRP1 (11732532_at) / RFU KRTAP10-11 (11738290_x_at) / Fold change /veh KRTAP10-11 (11738290_x_at) / RFU MYO3A (11730013_a_at) / Fold change /veh MYO3A (11730013_a_at) / RFU EBF3 (11725865_a_at) / Fold change /veh EBF3 (11725865_a_at) / RFU CAMK2N1 (11719241_x_at) / Fold change /veh CAMK2N1 (11719241_x_at) / RFU C5orf56 (11738088_a_at) / Fold change /veh C5orf56 (11738088_a_at) / RFU OLFML3 (11715873_a_at) / Fold change /veh OLFML3 (11715873_a_at) / RFU LOC100653217 /// NTM (11731650_a_at) / Fold change /veh LOC100653217 /// NTM (11731650_a_at) / RFU MAPK11 (11762145_a_at) / Fold change /veh MAPK11 (11762145_a_at) / RFU FIZ1 (11724087_x_at) / Fold change /veh FIZ1 (11724087_x_at) / RFU OASL (11726364_x_at) / Fold change /veh OASL (11726364_x_at) / RFU SOX15 (11748057_x_at) / Fold change /veh SOX15 (11748057_x_at) / RFU CD79A (11719716_a_at) / Fold change /veh CD79A (11719716_a_at) / RFU HIST1H1D (11736915_at) / Fold change /veh HIST1H1D (11736915_at) / RFU CASKIN2 (11723855_a_at) / Fold change /veh CASKIN2 (11723855_a_at) / RFU LOC730098 (11760151_x_at) / Fold change /veh LOC730098 (11760151_x_at) / RFU OR4N2 (11742367_at) / Fold change /veh OR4N2 (11742367_at) / RFU PRRT2 (11749266_a_at) / Fold change /veh PRRT2 (11749266_a_at) / RFU SNX32 (11753110_a_at) / Fold change /veh SNX32 (11753110_a_at) / RFU CDHR5 (11726645_a_at) / Fold change /veh CDHR5 (11726645_a_at) / RFU RCAN1 (11760418_a_at) / Fold change /veh RCAN1 (11760418_a_at) / RFU FAM167A (11723789_a_at) / Fold change /veh FAM167A (11723789_a_at) / RFU FAM26E (11764081_at) / Fold change /veh FAM26E (11764081_at) / RFU ISYNA1 (11749810_s_at) / Fold change /veh ISYNA1 (11749810_s_at) / RFU ACY1 (11761880_at) / Fold change /veh ACY1 (11761880_at) / RFU 11764098_at / Fold change /veh 11764098_at / RFU SAMD14 (11745864_x_at) / Fold change /veh SAMD14 (11745864_x_at) / RFU NPB (11741838_a_at) / Fold change /veh NPB (11741838_a_at) / RFU TMPRSS6 (11731388_a_at) / Fold change /veh TMPRSS6 (11731388_a_at) / RFU KRTAP10-2 (11738614_at) / Fold change /veh KRTAP10-2 (11738614_at) / RFU ARHGAP8 /// PRR5-ARHGAP8 (11727945_x_at) / Fold change /veh ARHGAP8 /// PRR5-ARHGAP8 (11727945_x_at) / RFU KRTAP5-7 /// NADSYN1 (11734609_at) / Fold change /veh KRTAP5-7 /// NADSYN1 (11734609_at) / RFU RASL12 (11751679_a_at) / Fold change /veh RASL12 (11751679_a_at) / RFU CDKN2B (11736163_a_at) / Fold change /veh CDKN2B (11736163_a_at) / RFU PRF1 (11729649_at) / Fold change /veh PRF1 (11729649_at) / RFU, ZNF638 /// ZNF638-IT1 / Fold change vs veh, ZNF638 /// ZNF638-IT1 / RFU, PANK3 / Fold change vs veh, PANK3 / RFU, SH3YL1 / Fold change vs veh, SH3YL1 / RFU, ZEB2 / Fold change vs veh, ZEB2 / RFU, NRIP1 / Fold change vs veh, NRIP1 / RFU, PTTG1IP / Fold change vs veh, PTTG1IP / RFU, CAPN2 / Fold change vs veh, CAPN2 / RFU, MED14 / Fold change vs veh, MED14 / RFU, SNORA58 / Fold change vs veh, SNORA58 / RFU, C1orf63 / Fold change vs veh, C1orf63 / RFU, LRRFIP1 / Fold change vs veh, LRRFIP1 / RFU, NDUFAF7 / Fold change vs veh, NDUFAF7 / RFU, SLC12A2 / Fold change vs veh, SLC12A2 / RFU, IBTK / Fold change vs veh, IBTK / RFU, ESF1 / Fold change vs veh, ESF1 / Fold change vs veh, TMEM50B / RFU, TAOK1 / Fold change vs veh, TAOK1 / RFU, ACBD3 / Fold change vs veh, ACBD3 / RFU, TMA16 / Fold change vs veh, TMA16 / RFU, RWDD3 / Fold change vs veh, RWDD3 / RFU, BCAT1 / Fold change vs veh, BCAT1 / RFU, EDEM3 / Fold change vs veh, EDEM3 / RFU, TMEM33 / Fold change vs veh, TMEM33 / RFU, WDR75 / Fold change vs veh, WDR75 / RFU, AHCTF1 / Fold change vs veh, AHCTF1 / RFU, TFRC / Fold change vs veh, TFRC / RFU, ZDHHC17 / Fold change vs veh, ZDHHC17 / RFU, NOM1 / Fold change vs veh, NOM1 / RFU, ARL8B / Fold change vs veh, ARL8B / RFU, ZBTB11 / Fold change vs veh, ZBTB11 / RFU, TAMM41 / Fold change vs veh, TAMM41 / RFU, KIAA1704 /// LOC100996395 / Fold change vs veh, KIAA1704 /// LOC100996395 / RFU, ING1 / Fold change vs veh, ING1 / RFU, TRMT61B / Fold change vs veh, TRMT61B / RFU, FUBP3 / Fold change vs veh, FUBP3 / RFU, TP53 / Fold change vs veh, TP53 / RFU, TNKS2 / Fold change vs veh, TNKS2 / RFU, ZFP14 / Fold change vs veh, ZFP14 / RFU, ACTR2 / Fold change vs veh, ACTR2 / RFU, PPP3R1 / Fold change vs veh, PPP3R1 / RFU, PIK3R1 / Fold change vs veh, PIK3R1 / RFU, HNRNPA1 / Fold change vs veh, HNRNPA1 / RFU, RNF170 / Fold change vs veh, RNF170 / RFU, ZNF28 / Fold change vs veh, ZNF28 / RFU, RNGTT / Fold change vs veh, RNGTT / RFU, OGT / Fold change vs veh, OGT / RFU, BRD1 / Fold change vs veh, BRD1 / RFU, MARS / Fold change vs veh, MARS / RFU, ZNF655 / Fold change vs veh, ZNF655 / RFU, FAHD1 / Fold change vs veh, FAHD1 / RFU, BDP1 / Fold change vs veh, BDP1 / RFU, LRRCC1 / Fold change vs veh, LRRCC1 / RFU, ARID1A / Fold change vs veh, ARID1A / RFU, ZNF146 / Fold change vs veh, ZNF146 / RFU, ZNF330 / Fold change vs veh, ZNF330 / RFU, GPN3 / Fold change vs veh, GPN3 / RFU, C9orf123 / Fold change vs veh, C9orf123 / RFU, N4BP2L2 / Fold change vs veh, N4BP2L2 / RFU, ARFIP1 / Fold change vs veh, ARFIP1 / RFU, FAM179B / Fold change vs veh, FAM179B / RFU, BCL10 / Fold change vs veh, BCL10 / RFU, UHRF1BP1L / Fold change vs veh, UHRF1BP1L / RFU, BET1 / Fold change vs veh, BET1 / RFU, CNOT2 / Fold change vs veh, CNOT2 / RFU, ZNF268 / Fold change vs veh, ZNF268 / Fold change vs veh, ZNF507 / RFU, DGCR2 / Fold change vs veh, DGCR2 / RFU, WDSUB1 / Fold change vs veh, WDSUB1 / Fold change vs veh, HSP90B1 /// MIR3652 / RFU, ADSS / Fold change vs veh, ADSS / RFU, GK / Fold change vs veh, GK / RFU, ZNF148 / Fold change vs veh, ZNF148 / RFU, TAF9 / Fold change vs veh, TAF9 / RFU, SLC1A5 / Fold change vs veh, SLC1A5 / RFU, SLMO2 / Fold change vs veh, SLMO2 / RFU, ABCC4 / Fold change vs veh, ABCC4 / RFU, LOC101060439 /// RAP1B / Fold change vs veh, LOC101060439 /// RAP1B / RFU, RFX7 / Fold change vs veh, RFX7 / RFU, GTPBP10 / Fold change vs veh, GTPBP10 / RFU, CNEP1R1 / Fold change vs veh, CNEP1R1 / RFU, BIVM-ERCC5 /// ERCC5 / Fold change vs veh, BIVM-ERCC5 /// ERCC5 / RFU, ILF3 / Fold change vs veh, ILF3 / RFU 11762660_at / Fold change /veh 11762660_at / RFU VCAN (11757783_s_at) / Fold change /veh VCAN (11757783_s_at) / RFU DDX43 (11728927_at) / Fold change /veh DDX43 (11728927_at) / RFU KRT8 (11758188_x_at) / Fold change /veh KRT8 (11758188_x_at) / RFU NKD1 (11759106_at) / Fold change /veh NKD1 (11759106_at) / RFU SRD5A1 (11742802_a_at) / Fold change /veh SRD5A1 (11742802_a_at) / RFU TPSAB1 /// TPSB2 (11721975_s_at) / Fold change /veh TPSAB1 /// TPSB2 (11721975_s_at) / RFU GSTM3 (11746129_a_at) / Fold change /veh GSTM3 (11746129_a_at) / RFU IL23R (11737362_x_at) / Fold change /veh IL23R (11737362_x_at) / RFU TMEM51 (11727254_a_at) / Fold change /veh TMEM51 (11727254_a_at) / RFU PIWIL2 (11732686_x_at) / Fold change /veh PIWIL2 (11732686_x_at) / RFU ORM1 (11744905_x_at) / Fold change /veh ORM1 (11744905_x_at) / RFU CCDC152 (11743942_at) / Fold change /veh CCDC152 (11743942_at) / RFU ECM1 (11717891_a_at) / Fold change /veh ECM1 (11717891_a_at) / RFU IL23R (11748794_a_at) / Fold change /veh IL23R (11748794_a_at) / RFU TNFAIP8L3 (11732012_x_at) / Fold change /veh TNFAIP8L3 (11732012_x_at) / RFU MBOAT4 (11741988_at) / Fold change /veh MBOAT4 (11741988_at) / RFU 11764193_at / Fold change /veh 11764193_at / RFU TMEM53 (11763286_at) / Fold change /veh TMEM53 (11763286_at) / RFU MAGEB2 (11727129_at) / Fold change /veh MAGEB2 (11727129_at) / RFU TMEM200A (11744735_a_at) / Fold change /veh TMEM200A (11744735_a_at) / RFU CCDC152 (11751479_a_at) / Fold change /veh CCDC152 (11751479_a_at) / RFU FAM211A (11726209_a_at) / Fold change /veh FAM211A (11726209_a_at) / RFU RGS16 (11746705_a_at) / Fold change /veh RGS16 (11746705_a_at) / RFU VCAN (11755009_s_at) / Fold change /veh VCAN (11755009_s_at) / RFU RHOB (11743442_s_at) / Fold change /veh RHOB (11743442_s_at) / RFU RGS16 (11720943_a_at) / Fold change /veh RGS16 (11720943_a_at) / RFU RGS16 (11720944_at) / Fold change /veh RGS16 (11720944_at) / RFU, VPS4B / Fold change vs veh, VPS4B / RFU, CREB1 / Fold change vs veh, CREB1 / RFU, DNAJC13 / Fold change vs veh, DNAJC13 / RFU, GNAQ / Fold change vs veh, GNAQ / RFU, CDK5R1 / Fold change vs veh, CDK5R1 / RFU, ZRANB3 / Fold change vs veh, ZRANB3 / RFU, CUL4A / Fold change vs veh, CUL4A / RFU, CCNY / Fold change vs veh, CCNY / RFU, UFL1 / Fold change vs veh, UFL1 / RFU, COG3 / Fold change vs veh, COG3 / RFU, DIAPH2 / Fold change vs veh, DIAPH2 / RFU, SKA2 / Fold change vs veh, SKA2 / RFU, AFF3 / Fold change vs veh, AFF3 / RFU, LMF1 / Fold change vs veh, LMF1 / RFU, IPO11 / Fold change vs veh, IPO11 / RFU, DFFB / Fold change vs veh, DFFB / RFU, FOXP1 / Fold change vs veh, FOXP1 / RFU, CARD8 / Fold change vs veh, CARD8 / RFU, STRN3 / Fold change vs veh, STRN3 / RFU, ADK / Fold change vs veh, ADK / RFU, RASSF2 / Fold change vs veh, RASSF2 / RFU, WIPF1 / Fold change vs veh, WIPF1 / RFU, LARP1B / Fold change vs veh, LARP1B / RFU, RASA1 / Fold change vs veh, RASA1 / RFU, RB1 / Fold change vs veh, RB1 / RFU, PPFIA1 / Fold change vs veh, PPFIA1 / RFU, MAT2A / Fold change vs veh, MAT2A / RFU, CCT5 / Fold change vs veh, CCT5 / RFU, WDR92 / Fold change vs veh, WDR92 / RFU, CUX1 / Fold change vs veh, CUX1 / RFU, TTC7A / Fold change vs veh, TTC7A / RFU, TMEM135 / Fold change vs veh, TMEM135 / RFU, DEPTOR / Fold change vs veh, DEPTOR / RFU, CPM / Fold change vs veh, CPM / RFU, DNAJB6 / Fold change vs veh, DNAJB6 / RFU, CACNA2D3 / Fold change vs veh, CACNA2D3 / RFU, DTX4 / Fold change vs veh, DTX4 / RFU, TFCP2 / Fold change vs veh, TFCP2 / RFU, GMCL1 /// GMCL1P1 / Fold change vs veh, GMCL1 /// GMCL1P1 / RFU, AEBP2 / Fold change vs veh, AEBP2 / RFU, SNHG1 /// SNORD22 /// SNORD25 /// SNORD26 /// SNORD27 /// SNORD28 /// SNORD29 /// SNORD31 / Fold change vs veh, SNHG1 /// SNORD22 /// SNORD25 /// SNORD26 /// SNORD27 /// SNORD28 /// SNORD29 /// SNORD31 / Fold change (Aza/veh), C12orf56 (ProbeSet 11735607_a_at) / Fold change (ACY-1035/veh), C12orf56 (ProbeSet 11735607_a_at) / Fold change (Aza/veh), FGFR1OP (ProbeSet 11751329_s_at) / Fold change (ACY-1035/veh), FGFR1OP (ProbeSet 11751329_s_at) / Fold change (Aza/veh), VPS36 (ProbeSet 11739960_a_at) / Fold change (ACY-1035/veh), VPS36 (ProbeSet 11739960_a_at) / RFU SYPL1 (11715823_x_at) / Fold change /veh SYPL1 (11715823_x_at) / RFU IGFBP7 (11715501_s_at) / Fold change /veh IGFBP7 (11715501_s_at) / RFU REEP3 (11722064_at) / Fold change /veh REEP3 (11722064_at) / RFU IGLL1 (11728026_x_at) / Fold change /veh IGLL1 (11728026_x_at): dose or concentration left out as unconfirmed
Details: ProbeSet 11723475_a_at; LIST B

Compound: Nc1ncn([C@@H]2O[C@H](CO)[C@@H](O)[C@H]2O)c(=O)n1 [azacitidine]
- RFU, TRMT61B: 139.59 RFU
